The source of these data is patent publication US8815879B2, “Substituted 4-(selenophen-2(or-3)-ylamino)pyrimidine compounds and methods of use thereof” (Kasina Laila Innova Pharmaceuticals Private Limited, priority 2010, dated 2014).

What is called melting point is the temperature, or range, at which the solid turns liquid.

“Also recorded” adds a separate entry of the source.

In data set [1] the test system is human lung carcinoma A549 cells. Description: MTT based cell proliferation assay, A549. The settings on record: for IC50 / inhibition at 10 µg/mL: Homo sapiens, A549, 72 h; for IC50: read-out: Cell Proliferation Inhibition in A549 (Lung carcinoma), IC50; for inhibition at 10 µg/mL: read-out: Cell Proliferation Inhibition in A549 (Lung carcinoma), % at highest screening dose.

For data set [2], the system named is human colorectal carcinoma HT29 cells. Description: MTT based cell proliferation assay, HT29. The settings on record: for IC50 / inhibition at 10 µg/mL: Homo sapiens, HT-29, 72 h; for IC50: read-out: Cell Proliferation Inhibition in HT29 (Colon carcinoma), IC50; for inhibition at 10 µg/mL: read-out: Cell Proliferation Inhibition in HT29 (Colon carcinoma), % at highest screening dose.

Data set [3] has as its system human prostate DU145 cells. The data set is described as follows: MTT based cell proliferation assay, DU145. The settings on record: for IC50 / inhibition at 10 µg/mL: Homo sapiens, DU-145, 72 h; for IC50: read-out: Cell Proliferation Inhibition in DU145 (Prostate carcinoma), IC50; for inhibition at 10 µg/mL: read-out: Cell Proliferation Inhibition in DU145 (Prostate carcinoma), % at highest screening dose.

Data set [4] has as its system HepG2 (Hepatocellular Carcinoma). Description: cells. The note with it: for IC50: Homo sapiens, HepG2, MTT, read-out: Cell proliferation inhibition (IC50) in HepG2 (Hepatocellular Carcinoma); for potency compared to Iressa, HepG2: ratio of IC50 values. In kind it is cell-based. How it is done:
(§1) MTT [3-(4,5-dimethylthiazol-2-yl)-2,5-diphenyltetrazolium bromide] incorporation based cell proliferation assay was performed using standard procedure. […] The assay was carried out according to the instructions provided by the vendor. […] Vehicle control culture wells received only a maximum of 0.5% DMSO. Thereafter, 0.5 mg/ml of MTT reagent was added to each well and the microplate was incubated further for 4 h at 37° C. in presence of 5% CO2. Finally, the cells were solubilized by adding solubilizing solution and allowed to incubate at 37° C. overnight. After complete solubilization of the formazan crystals the absorbance was read at 540 nm in a microplate reader (BioRad, USA).
(§2) The evaluation of cell proliferation inhibitory activities of the compounds was done in two phases—(1) Screening, and (2) half-maximal inhibitory concentration (IC50) determination. In the screening phase, the cells were treated with three different concentrations e.g. 1, 5 and 10 μg/ml.

Data set [5] concerns human breast carcinoma (estrogen receptor negative) MDA-MB-231 cells. The data set is described as follows: cells. Type of data set: cell-based. The settings on record: for IC50: Homo sapiens, MDA-MB-231, MTT, read-out: Cell proliferation inhibition (IC50) in MDA-MB-231 (Breast Carcinoma); for potency compared to Iressa, MDA-MB-231: ratio of IC50 values. Here is the method:
as §1, §2

Data set [6] relates to human cervical carcinoma HeLa cells. The data set is described as follows: cells. Type of data set: cell-based. The note with it: for IC50: Homo sapiens, HeLa, MTT, read-out: Cell proliferation inhibition (IC50) in HeLa (Cervical Carcinoma); for potency compared to Iressa, HeLa: ratio of IC50 values. How it is done: as §1, §2
The subject of data set [7] is Human umbilical vein endothelial cells (HUVEC). Description: In vitro endothelial capillary formation assay. In kind it is cell-based. The note with it: HUVEC on Cultrex, 10 ng/ml FGF, Compound 27 at 0.5, 1.0, 2.5 and 5 μg/ml, 16 h. How it is done:
Human umbilical vein endothelial cells (HUVECs) were laid on Cultrex coated plates in presence of either 10 ng/ml human recombinant Fibroblast Growth Factor (FGF) alone (B) or concomitantly with Compound 27 at 0.5, 1.0, 2.5 and 5 μg/ml C, D, E, and F, respectively. The cells in presence of treatments were allowed to form endothelial capillary tubes for 16 h at 37° C. Panel A represents capillary-like endothelial tube formation in 0.1% DMSO treated vehicle control wells.
In vitro capillary formation assay was performed with Human umbilical vein endothelial cells (HUVEC), cultured on 10 mg/ml basement membrane extract (BME—Cultrex®, R&D Systems, USA) bed. Four hundred microliters of Cultrex was coated at 4° C. in each well of 24-well culture plate and allowed to gel at 37° C. for 1 h. HUVECs were plated at a density of 1×10^5 cells per well with 400 μl of EGM-2 medium (Lonza Walkersville Inc. Walkersville, Md.). The cells were then treated with either 10 ng/ml of Human recombinant Fibroblast Growth Factor (FGF, R&D Systems, Minneapolis, Minn.)) alone or concurrently with different concentrations of Compound 27 for 16 hours. Vehicle control cultures received only 0.1% DMSO. Pictures were taken under a Nikon Eclipse TS 100 microscope equipped with a Nikon Coolpix camera. […] In contrast, FGF promoted human endothelial capillary formation in vitro (FIG. 1).

Compound `COc1cc2ncnc(Nc3cc(C(C)(C)C)[se]c3C(N)=O)c2cc1OC` [Compound 1, 3-(6,7-dimethoxyquinazolin-4-ylamino)-5-tert-butylselenophene-2-carboxamide] registered a melting point of 234 to 238 °C. The IC50 in data set [1] was found to be 9.08 µM. The “potency in vitro compared to gefitinib (Iressa), A549” value in data set [1] (ratio of IC50 values) was “approximately two times”. Further, the IC50 in data set [2] worked out at 5.12 µM. Besides, the “potency in vitro compared to gefitinib (Iressa), HT29” value in data set [2] (ratio of IC50 values) was “several times better potency”. Also, the IC50 in data set [3] was 3.6 µM. Besides, the “potency in vitro compared to gefitinib (Iressa), DU145” value in data set [3] (ratio of IC50 values) is given as “several times better potency”.
`CSc1cc2ncnc(Nc3cc(C(C)(C)C)[se]c3C(N)=O)c2s1` [Compound 14, 3-(6-(methylthio)thiopheno[3,2-d]pyrimidin-4-ylamino)-5-tert-butyl-selenophene-2-carboxamide] showed a melting point of 260 to 262 °C. In data set [1], the inhibition at 10 µg/mL is 3.54%. In data set [2], the inhibition at 10 µg/mL came to 53.5%. Also, in data set [3], the inhibition at 10 µg/mL is 7.81%.
Compound `CC(C)(C)c1cc(Nc2ncnc3oc(-c4ccccc4)cc23)c(C(N)=O)[se]1` [Compound 15, 3-(6-phenylfuro[2,3-d]pyrimidin-4-ylamino)-5-tert-butylselenophene-2-carboxamide] displayed a melting point of 280 to 282 °C. Besides, the inhibition at 10 µg/mL in data set [1] worked out at 5.87%. In data set [2], the inhibition at 10 µg/mL was 25.4%. Moreover, the inhibition at 10 µg/mL in data set [3] turned out to be 3.44%.
On to `CC(C)(C)c1cc2c(Nc3cc(C(C)(C)C)[se]c3C(N)=O)ncnc2o1` [Compound 16, 3-(6-tert-butylfuro[2,3-d]pyrimidin-4-ylamino)-5-tert-butylselenophene-2-carboxamide], for which the melting point was in the range of 288 to 290 °C. The inhibition at 10 µg/mL in data set [1] amounted to 1.6%. Further, the inhibition at 10 µg/mL in data set [2] amounted to 20.3%. The inhibition at 10 µg/mL in data set [3] worked out at 2.81%.
Regarding `COC(=O)c1cc(Nc2ncnc3[nH]c(C)c(C)c23)c(C)[se]1` [Compound 17, methyl 4-(5,6-dimethyl-7H-pyrrolo[2,3-d]pyrimidin-4-ylamino)-5-methylselenophene-2-carboxylate], the melting point is 238 to 240 °C. In data set [1], the inhibition at 10 µg/mL was 2.66%. Besides, the inhibition at 10 µg/mL in data set [2] came out at 4.54%. In addition, the inhibition at 10 µg/mL in data set [3] is 7.62%.
Regarding `COc1cc2ncnc(N(C)c3cc(C(C)(C)C)[se]c3C(N)=O)c2cc1OC` [Compound 21, 3-(N-(6,7-dimethoxyquinazolin-4-yl)-N-methylamino)-5-tert-butylseleno-phene-2-carboxamide], the melting point was 256 to 258 °C. In data set [4], the IC50 was 2.33 µM and the “potency compared to Iressa, HepG2” value was “fifteen”. Further, in data set [5], the IC50 is 2.86 µM and the “potency compared to Iressa, MDA-MB-231” value is “sixteen”. In data set [6], the IC50 was determined as 2.97 µM and the “potency compared to Iressa, HeLa” value is reported as “seventeen times”. For the same compound, the IC50 in data set [1] came to 3.59 µM. Besides, the IC50 in data set [2] was 3.88 µM. For the same compound, the IC50 in data set [3] was found to be 3.95 µM.
As for `COc1cc2nc(CN(C)C)nc(Nc3cc(C(C)(C)C)[se]c3C(N)=O)c2cc1OC` [Compound 27], the IC50 in data set [4] came out at 2.34 µM; in data set [5], 3.09 µM; in data set [6], 2.88 µM; in data set [1], 3.58 µM; in data set [2], 2.86 µM; in data set [3], 2.97 µM. Also, in data set [4], the “potency compared to Iressa, HepG2” value was “equally more potent than Iressa”. In data set [5], the “potency compared to Iressa, MDA-MB-231” value is recorded as “equally more potent than Iressa”. Besides, the “potency compared to Iressa, HeLa” value in data set [6] is “equally more potent than Iressa”. Also, the “inhibition of FGF induced capillary-like endothelial tube formation” value is listed as “inhibits capillary-like endothelial tube formation in vitro; also recorded: inhibited FGF induced capillary formation in a dose dependent manner” in data set [7] and “significantly inhibiting endothelial capillary formation in a dose dependent manner” in data set [7] (listed as compound 27).
`COc1cc2nc(-c3ccc(Cl)cc3)nc(Nc3cc(C(C)(C)C)[se]c3C(N)=O)c2cc1OC` [Compound 28, 3-(2-(4-chlorophenyl)-6,7-dimethoxyquinazolin-4-ylamino)-5-tert-butylselenophene-2-carboxamide] gave a melting point of 268 to 270 °C. In addition, in data set [1], the inhibition at 10 µg/mL was 9%. Further, the inhibition at 10 µg/mL in data set [2] is 2.69%. For the same compound, in data set [3], the inhibition at 10 µg/mL was 10.4%.
The corresponding values for `COc1cc2ncnc(Oc3cc(C(C)(C)C)[se]c3C(N)=O)c2cc1OC` [Compound 29, 3-(6,7-dimethoxyquinazolin-4-yloxy)-5-tert-butylselenophene-2-carboxamide] are 220 to 224 °C, 15.6%, 44.6% and 43%.
